Drawing on patent publication US10703721B2, “Caffeic acid derivatives and uses thereof” (Board of Regents, The University of Texas System, priority 2017, dated 2020), this text covers IC50 for 12 compounds.

Common to all, as to test: Cytotoxicity assay (MTS, 72 hours)
For data set [1], the system named is WM793. It counts as cell-based, human. The protocol: (§1) Tumor cell lines were maintained in DMEM with 10% fetal bovine serum (FBS), 100 microg/ml streptomycin, and 100 IU/ml penicillin in 5% CO2 at 37° C.
WM793 human melanoma tumor cell lines were used from different stages of progression and their biological and molecular analyses. See Satyamoorthy et al. (1997).
(§2) For the cytotoxicity assays, 1,500 tumor cells were plated into 96-well flat-bottom tissue culture plates in complete medium (see Tables 2 and 3). After 20 hours fresh media containing different concentrations of compounds disclosed herein added. Cell number was counted after 72 hours by using MTS assay (Promega CellTiter AQ Non-Radioactive Cell Proliferation Assay kit, Madison, Wis., USA) by measuring absorbance at 490 nm with a 96-well plate reader. Data are presented as IC50 values derived from relative inhibition of proliferation plus SD of eight measurements. The number of cells in the presence of DMSO was taken as 100%.

The test system of data set [2] is Colo357-FG. In kind it is cell-based, human. The protocol: as §1
Colo357-FG and Colo357-L3: Colo357-FG, a fast-growing variant produced regional lymph node metastasis in 58% of nude mice after subcutaneous implantation and growth. It also produced hepatic metastasis in 64% and pulmonary metastasis in 43% of nude mice after intrasplenic implantation of tumor cells. See Vezeridis et al. (1990).
as §2

Data set [3] deals with Ovcar-5. In kind it is cell-based. The protocol:
as §1, §2

The test system of data set [4] is SU.86.86. It counts as cell-based. Here is the method: as §1, §2
The test system of data set [5] is HH. In kind it is cell-based. Particulars: Table 3, CTCL. Here is the method:
as §1, §2

The test system of data set [6] is MDA-PATC-108. It counts as cell-based. The settings on record: Table 3, Panc. The protocol: as §1, §2
Data set [7] has as its system U87MG. It counts as cell-based. Particulars: Table 3, GBM. The protocol:
as §1, §2

In data set [8] the test system is SK-MEL-28. It counts as cell-based. Here is the method:
as §1, §2

In data set [9] the test system is BT-58. In kind it is cell-based. The settings on record: Table 3, Ependymoma. Here is the method: as §1, §2
The subject of data set [10] is WM35. It counts as cell-based. The protocol:
as §1, §2

Data set [11] deals with HuT78. In kind it is cell-based. The protocol:
as §1, §2

Data set [12] deals with A375. It counts as cell-based. The protocol: as §1, §2
In data set [13] the test system is LNZ-428. It counts as cell-based. Particulars: Table 3, GBM. The protocol: as §1, §2
Data set [14] deals with 231. In kind it is cell-based. The settings on record: Table 3, Breast. The protocol:
as §1, §2

The subject of data set [15] is MDA-PATC-53. It counts as cell-based. Here is the method:
as §1, §2

The subject of data set [16] is 231-MB. In kind it is cell-based. The settings on record: Table 3, Breast. Here is the method: as §1, §2
Data set [17] has as its system 4T1. It counts as cell-based. Here is the method:
as §1, §2

Data set [18] deals with BT483. It counts as cell-based. The protocol:
as §1, §2

Data set [19] deals with PC3. In kind it is cell-based. The protocol: as §1, §2
Data set [20] concerns MIA-PaCa-2. In kind it is cell-based. Here is the method: as §1, §2
The test system of data set [21] is HD2. It counts as cell-based. Particulars: Table 3, Myeloma. The protocol: After 20 hours fresh media containing different concentrations of compounds disclosed herein added. Cell number was counted after 72 hours by using MTS assay (Promega CellTiter AQ Non-Radioactive Cell Proliferation Assay kit, Madison, Wis., USA) by measuring absorbance at 490 nm with a 96-well plate reader. Data are presented as IC50 values derived from relative inhibition of proliferation plus SD of eight measurements. The number of cells in the presence of DMSO was taken as 100%.

Data set [22] concerns D423 enol. In kind it is cell-based. Particulars: Table 3, GBM. The protocol: as §1, §2
The test system of data set [23] is D423. In kind it is cell-based. Particulars: Table 3, GBM. Here is the method: as §1, §2
Data set [24] deals with LN319. In kind it is cell-based. Particulars: LN-319, Table 3, GBM. The protocol: as §1, §2
Data set [25] has as its system MDA-PATC-148. In kind it is cell-based. The settings on record: Table 3, Panc. Here is the method: as §1, §2
The subject of data set [26] is MDA-PATC-153. In kind it is cell-based. The settings on record: Table 3, Panc. The protocol:
as §1, §2

Setting [27] is: Homo sapiens, COLO 357/FG, 72 h, Table 2, Colo357-FG.
Setting [28] is: MDA-PATC53, 72 h, Table 2, MDA-PATC-53.

As for `C[C@H](NC(=O)/C(C#N)=C/c1cccc(Br)n1)c1ccccc1` [WP1066, reference compound], the IC50 in data set [1] (Table 3, Melanoma) was found to be 2100 nM; in data set [2] (Table 2, Colo357-FG), 2100 nM; in data set [2] (Table 3, Panc), 2000 nM; in data set [3] (Table 3, Ovarian) it was 1700 nM; in [4] (Table 3, Panc), 2500 nM; in data set [5], 2300 nM. Besides, the IC50 in [6] amounted to 2400 nM; in [7], 1700 nM; in data set [8] (Table 3, Melanoma) it was 2000 nM; in data set [9], 1800 nM; in data set [10] (Table 3, Melanoma), 1300 nM; in [11] (Table 3, CTCL), 1900 nM. Besides, the IC50 in data set [12] (Table 3, Melanoma) was determined as 1500 nM; in [13], 1500 nM; in data set [14], 4800 nM; in [15] (Table 2, MDA-PATC-53), 2400 nM; in [15] (Table 3, Panc) it was 2400 nM; in data set [16], 1200 nM. Further, the IC50 in data set [17] (Table 3, Breast) was 4400 nM; in [18] (Table 3, Breast), 4200 nM; in [19] (Table 3, Prostate), 2300 nM; in data set [20] (Table 3, Panc) it was 1700 nM; in data set [21], 1700 nM.
Turning to `CCC(CC)(NC(=O)/C(C#N)=C/c1cccc(Cl)n1)c1ccc(OCCOCCN2CCN(C)CC2)cc1` [WP1732], the concentration for half-maximal inhibition (IC50) in data set [1] (Homo sapiens, WM793, Table 3, Melanoma) is 1800 nM; in data set [2] (Homo sapiens, COLO 357/FG, 72 h, Table 3, Panc) it was 2600 nM; in data set [3] (Homo sapiens, OVCAR-5, Table 3, Ovarian), 1700 nM; in data set [22] it was 2500 nM; in data set [4] (Homo sapiens, SU.86.86, Table 3, Panc) it was 1500 nM; in [5] (Homo sapiens, HH) it was 3200 nM. For the same compound, the IC50 in [6] amounted to 1600 nM; in [7] (Homo sapiens, U-87 MG), 1800 nM; in data set [8] (Homo sapiens, SK-MEL-28, Table 3, Melanoma) it was 1800 nM; in [9] it was 1800 nM; in [10] (WM35, Table 3, Melanoma), 2300 nM; in [23], 1400 nM. Further, the IC50 in data set [11] (Homo sapiens, HuT78, Table 3, CTCL) was 2900 nM; in [24] it was 2800 nM; in data set [12] (Homo sapiens, A-375, Table 3, Melanoma), 1100 nM; in data set [13] it was 2300 nM; in data set [14], 2800 nM; in data set [15] (MDA-PATC53, 72 h, Table 3, Panc), 1800 nM. For the same compound, the IC50 in data set [25] amounted to 1900 nM; in data set [16], 1500 nM; in data set [17] (Mus musculus, 4T1, Table 3, Breast), 4500 nM; in [18] (Homo sapiens, BT-483, Table 3, Breast) it was 2300 nM; in data set [19] (Homo sapiens, PC-3, Table 3, Prostate), 1400 nM; in [20] (Homo sapiens, MIA PaCa-2, Table 3, Panc), 1600 nM. Further, the values for the IC50 in data set [26] and in data set [21] were 2600 nM and 3800 nM, respectively.
Take `CCC(CC)(NC(=O)/C(C#N)=C/c1cccc(Cl)n1)c1ccc(OCCN2CCOCC2)cc1` [WP 1721, (E)-3-(6-chloropyridin-2-yl)-2-cyano-N-(3-(4-(2-morpholinoethoxy)phenyl)pentan-3-yl)acrylamide]: the IC50 in data set [2] (setting [27]) and in [15] (setting [28]) was 1100 nM each time.
`CCN(CC)CCOc1ccc(C(CC)(CC)NC(=O)/C(C#N)=C/c2cccc(Cl)n2)cc1` [WP 1722, (E)-3-(6-chloropyridin-2-yl)-2-cyano-N-(3-(4-(2-(diethylamino)ethoxy)phenyl)pentan-3-yl)acrylamide]: the IC50 in data set [2] (Table 2, Colo357-FG) is 1200 nM; in data set [15] (Table 2, MDA-PATC-53), 1100 nM.
With `CCC(CC)(NC(=O)/C(C#N)=C/c1cccc(Cl)n1)c1ccc(OCCOCCN2CCOCC2)cc1` [WP 1723, (E)-3-(6-chloropyridin-2-yl)-2-cyano-N-(3-(4-(2-(2-morpholinoethoxy)ethoxy)phenyl)pentan-3-yl)acrylamide], the IC50 in data set [2] (setting [27]) was 1200 nM; in [15] (setting [28]) it was 1400 nM.
For `CCC(CC)(NC(=O)/C(C#N)=C/c1ccccn1)c1ccc(OCCOCCN2CCOCC2)cc1` [WP 1724, (E)-2-cyano-N-(3-(4-(2-(2-morpholinoethoxy)ethoxy)phenyl)pentan-3-yl)-3-(pyridin-2-yl)acrylamide], in that order: 2800 nM and 3500 nM.
In the case of `CCN(CC)CCOc1ccc(C(CC)(CC)NC(=O)/C(C#N)=C/c2ccccn2)cc1` [WP 1727, (E)-2-cyano-N-(3-(4-(2-(diethylamino)ethoxy)phenyl)pentan-3-yl)-3-(pyridin-2-yl)acrylamide], the values for the half-maximal inhibitory concentration (IC50) in data set [2] (setting [27]) and in data set [15] (setting [28]) were 2200 nM and 3000 nM, respectively.
For `CCC(CC)(NC(=O)/C(C#N)=C/c1cccc(Cl)n1)c1ccc(OCCOCCN2CCN(C)CC2)cc1` [WP 1731, (E)-3-(6-chloropyridin-2-yl)-2-cyano-N-(3-(4-(2-(2-(4-methylpiperazin-1-yl)ethoxy)ethoxy)phenyl)pentan-3-yl)acrylamide], in that order: 1500 nM and 1800 nM.
Consider `CCCC(CCC)(NC(=O)/C(C#N)=C/c1cccc(Cl)n1)c1ccc(OCCN2CCOCC2)cc1` [WP 1733, (E)-3-(6-chloropyridin-2-yl)-2-cyano-N-(4-(4-(2-morpholinoethoxy)phenyl)heptan-4-yl)acrylamide], for which the IC50 in data set [2] (setting [27]) is 950 nM; in data set [15] (setting [28]), 1100 nM.
With `CCCC(CCC)(NC(=O)/C(C#N)=C/c1cccc(Cl)n1)c1ccc(OCCN(CC)CC)cc1` [WP 1734, (E)-3-(6-chloropyridin-2-yl)-2-cyano-N-(4-(4-(2-(diethylamino)ethoxy)phenyl)heptan-4-yl)acrylamide], the IC50 in [2] (setting [27]) came out at 1500 nM; in data set [15] (setting [28]), 1600 nM.
With `CCC(CC)(NC(=O)/C(C#N)=C/c1cccc(Cl)n1)c1ccc(OCCN2CCOCC2)cc1` [WP 1793], the IC50 in data set [2] (Table 2, Colo357-FG) amounted to 800 nM; in [15] (Table 2, MDA-PATC-53) it was 1000 nM.
For the compound `CCN(CC)CCOc1ccc(C(CC)(CC)NC(=O)/C(C#N)=C/c2cccc(Cl)n2)cc1` [WP 1794], the IC50 in [2] (setting [27]) was determined as 600 nM; in [15] (setting [28]), 900 nM.

As a reminder, the IC50 is the midpoint of a concentration-inhibition curve. A high value points to lower potency.
